Counter-ions that a name gives are not always drawn.
The molecules below were run against AaDOP2 (Aedes aegypti, UniProt H6D5H2) (assay: AaDOP2 antagonist screen of the LOPAC1280 library (HEK-CRELuc-Aadop2 cells, luminescence)). Settings: not given.
Assay type: cell-based

AaDOP2, sequence (H6D5H2 1-476): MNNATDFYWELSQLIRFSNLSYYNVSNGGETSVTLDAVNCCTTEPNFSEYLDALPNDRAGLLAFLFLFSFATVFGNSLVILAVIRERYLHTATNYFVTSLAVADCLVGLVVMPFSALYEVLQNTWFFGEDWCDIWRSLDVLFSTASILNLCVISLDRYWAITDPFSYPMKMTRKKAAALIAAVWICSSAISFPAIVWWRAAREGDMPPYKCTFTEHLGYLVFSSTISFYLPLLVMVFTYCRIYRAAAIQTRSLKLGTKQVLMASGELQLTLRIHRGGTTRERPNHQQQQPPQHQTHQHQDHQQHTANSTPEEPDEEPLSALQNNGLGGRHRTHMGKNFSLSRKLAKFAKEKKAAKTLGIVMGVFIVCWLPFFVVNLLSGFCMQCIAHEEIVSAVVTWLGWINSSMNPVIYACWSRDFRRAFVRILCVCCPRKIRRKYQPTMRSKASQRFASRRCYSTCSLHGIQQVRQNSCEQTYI

First: CCCC(=O)NCCc1c2n(c3ccc(OC)cc13)Cc1ccccc1-2 [Compound 647, IIK7]
Second: CCCC(=O)NCCc1c2n(c3ccc(OC)cc13)CCCc1ccccc1-2 [Compound 686, K 185]
The “Compound effect (percent receptor signaling in presence of test compound, relative lux units relative to the SCH23390 control)” value of the first is higher: 96 for the first, 80 for the second.

Going from `CC(C)Cn1c(=O)n(C)c(=O)c2[nH]cnc21` [Compound 649, 3-Isobutyl-1-methylxanthine] to `Nc1nc2[nH]c(=O)cnc2c(=O)[nH]1` [Compound 656, Isoxanthopterin], the “Compound effect (percent receptor signaling in presence of test compound, relative lux units relative to the SCH23390 control)” value falls from 129 to 106.

Going from `c1ccc2c(c1)OCC(C1=NCCN1)O2` (stereo not drawn) [Compound 650, Idazoxan hydrochloride] to `CCn1ccnc1CC1COc2ccccc2O1` (stereo not drawn) [Compound 663, Imiloxan hydrochloride], the “Compound effect (percent receptor signaling in presence of test compound, relative lux units relative to the SCH23390 control)” value falls from 103 to 96.

First: CC1CN(S(=O)(=O)c2cccc3cnccc23)CCN1.Cl.Cl (stereo not drawn) [Compound 651, 1-(5-Isoquinolinylsulfonyl)-3-methylpiperazine dihydrochloride]
Second: CC1CNCCN1S(=O)(=O)c1cccc2cnccc12.Cl.Cl (stereo not drawn) [Compound 653, 1-(5-Isoquinolinylsulfonyl)-2-methylpiperazine dihydrochloride]
The “Compound effect (percent receptor signaling in presence of test compound, relative lux units relative to the SCH23390 control)” value of the first is higher: 100 for the first, 29 for the second.

Going from `COc1ccc2c(c1)c(CC(=O)O)c(C)n2C(=O)c1ccc(Cl)cc1` [Compound 654, Indomethacin] to `COc1ccc2c(c1)c(CC(=O)N1CCOCC1)c(C)n2C(=O)c1ccc(Cl)cc1` [Compound 677, Indomethacin morpholinylamide], the “Compound effect (percent receptor signaling in presence of test compound, relative lux units relative to the SCH23390 control)” value falls from 100 to 89.

Compared with `CC(=N)NCCCC[C@H](N)C(=O)O.Cl` [Compound 659, L-N6-(1-Iminoethyl)lysine hydrochloride], `CC(=N)NCCC[C@H](N)C(=O)O.Cl` [Compound 661, L-N5-(1-Iminoethyl)ornithine hydrochloride] is higher in “Compound effect (percent receptor signaling in presence of test compound, relative lux units relative to the SCH23390 control)” value: 101 for the first, 102 for the second.

Going from `N[C@@H](Cc1ccc(O)c(I)c1)C(=O)O` [Compound 660, 3-Iodo-L-tyrosine] to `CC(C)Cc1ccc([C@H](C)C(=O)O)cc1` [Compound 666, S(+)-Ibuprofen], the “Compound effect (percent receptor signaling in presence of test compound, relative lux units relative to the SCH23390 control)” value rises from 100 to 102.

`CC[C@H](C)[C@H]1O[C@]2(CC[C@@H]1C)C[C@@H]1C[C@@H](C/C=C(\C)[C@@H](O[C@H]3C[C@H](OC)[C@@H](O[C@H]4C[C@H](OC)[C@@H](O)[C@H](C)O4)[C@H](C)O3)[C@@H](C)/C=C/C=C3\CO[C@@H]4[C@H](O)C(C)=C[C@@H](C(=O)O1)[C@]34O)O2` [Compound 662, Ivermectin] and `CCN1C[C@]2(C)CC[C@H](O)[C@]34C1[C@@H](C[C@H]23)[C@@]1(O)C[C@H](OC)[C@H]2C[C@@H]4[C@@H]1[C@H]2O` [Compound 690, Karakoline] are the same in “Compound effect (percent receptor signaling in presence of test compound, relative lux units relative to the SCH23390 control)” value: 101 for the first, 101 for the second.

Compared with `Cc1cc(C)c(NC(=O)C[C@H](CC(=O)O)c2cccc3ccccc23)c(C(=O)N2CCC3(CCCC3)CC2)c1` [Compound 664, CR 2945], `CCCn1c(C)c(C(=O)c2cccc3ccccc23)c2ccccc21` [Compound 680, JWH-015] is lower in “Compound effect (percent receptor signaling in presence of test compound, relative lux units relative to the SCH23390 control)” value: 101 for the first, 73 for the second.

First: C[C@@]1(C2CCCC2)Cc2cc(OCC(=O)O)c(Cl)c(Cl)c2C1=O [Compound 668, R(+)-IAA-94]
Second: CN(C(=O)Cc1ccc(Cl)c(Cl)c1)C(CN1CCCC1)c1cccc(OCC(=O)O)c1.Cl (stereo not drawn) [Compound 671, ICI 204,448 hydrochloride]
The “Compound effect (percent receptor signaling in presence of test compound, relative lux units relative to the SCH23390 control)” value of the first is higher: 100 for the first, 97 for the second.

First: CN[C@@H]1C[C@@H](c2ccc(Cl)c(Cl)c2)c2ccccc21 [Compound 669, Indatraline hydrochloride]
Second: O=C1Cc2c([nH]c3ccc(Br)cc23)-c2ccccc2N1 [Compound 689, Kenpaullone]
The “Compound effect (percent receptor signaling in presence of test compound, relative lux units relative to the SCH23390 control)” value of the first is higher: 54 for the first, 17 for the second.

First: CC(C)NC(C)Cc1ccc(I)cc1 (stereo not drawn) [Compound 670, Iofetamine hydrochloride]
Second: CC(C(=O)O)c1ccc(CC2CCCC2=O)cc1 (stereo not drawn) [Compound 692, loxoprofen]
The “Compound effect (percent receptor signaling in presence of test compound, relative lux units relative to the SCH23390 control)” value of the first is lower: 90 for the first, 92 for the second.

Compared with `N=C(N)SCCc1cnc[nH]1` [Compound 673, Imetit dihydrobromide], `CC[N+](C)(CC)CC(=O)Nc1c(C)cccc1C.[Cl-]` [Compound 695, Lidocaine N-methyl hydrochloride] is higher in “Compound effect (percent receptor signaling in presence of test compound, relative lux units relative to the SCH23390 control)” value: 91 for the first, 92 for the second.

First: Oc1cccc2c(O)nccc12 [Compound 674, 1,5-Isoquinolinediol]
Second: O=C(O)c1cc(=O)c2ccccc2[nH]1 [Compound 688, Kynurenic acid]
The “Compound effect (percent receptor signaling in presence of test compound, relative lux units relative to the SCH23390 control)” value of the first is lower: 92 for the first, 99 for the second.

Going from `CNC(=O)[C@H]1O[C@@H](n2cnc3c(NCc4cccc(I)c4)ncnc32)[C@H](O)[C@@H]1O` [Compound 676, IB-MECA] to `CC(CCc1ccccc1)NCC(O)c1ccc(O)c(C(N)=O)c1` (stereo not drawn) [Compound 693, Labetalol hydrochloride], the “Compound effect (percent receptor signaling in presence of test compound, relative lux units relative to the SCH23390 control)” value falls from 105 to 83.

Going from `Cl.Fc1ccc(C(OCCCc2c[nH]cn2)c2ccc(F)cc2)cc1` [Compound 678, 3-(1H-Imidazol-4-yl)propyl di(p-fluorophenyl)methyl ether hydrochloride] to `O=c1[nH]c2cc(Cl)ccc2c(O)c1-c1cccc(Oc2ccccc2)c1` [Compound 691, L-701,324], the “Compound effect (percent receptor signaling in presence of test compound, relative lux units relative to the SCH23390 control)” value rises from 52 to 90.

Going from `O=C(O)C1CCNCC1` [Compound 679, Isonipecotic acid] to `C=C(C)[C@H]1CN[C@H](C(=O)O)[C@H]1CC(=O)O` [Compound 682, Kainic acid], the “Compound effect (percent receptor signaling in presence of test compound, relative lux units relative to the SCH23390 control)” value rises from 94 to 98.

Compared with `Cc1ccc2c(c1)C(N1CCN(C)CC1)=Nc1cccnc1N2` [Compound 681, JL-18], `CN1CCC(=C2c3ccccc3CC(=O)c3sccc32)CC1` [Compound 687, Ketotifen fumarate] is higher in “Compound effect (percent receptor signaling in presence of test compound, relative lux units relative to the SCH23390 control)” value: 2 for the first, 4 for the second.

First: CC(=O)N1CCN(c2ccc(OCC3COC(Cn4ccnc4)(c4ccc(Cl)cc4Cl)O3)cc2)CC1 (stereo not drawn) [Compound 683, Ketoconazole]
Second: CC(C(=O)O)c1cccc(C(=O)c2ccccc2)c1 (stereo not drawn) [Compound 685, Ketoprofen]
The “Compound effect (percent receptor signaling in presence of test compound, relative lux units relative to the SCH23390 control)” value of the first is lower: 85 for the first, 101 for the second.

First: CCCCOC(=O)NS(=O)(=O)c1sc(CC(C)C)cc1-c1ccc(Cn2c(CC)nc3c(C)cc(C)nc32)cc1 [Compound 694, L-162,313]
Second: CC1(C)CCC2=C(O1)c1ccccc1C(=O)C2=O [Compound 696, beta-Lapachone]
The “Compound effect (percent receptor signaling in presence of test compound, relative lux units relative to the SCH23390 control)” value of the first is higher: 99 for the first, 14 for the second.

`Cc1ccc2c(c1)C(N1CCN(C)CC1)=Nc1cccnc1N2` [Compound 681, JL-18] was tested, and the “% of the SCH23390 effect (percent inhibition of receptor response relative to the SCH23390 control)” value was 98%.

Same assay, conditions: 10 µM compound, 300 nM dopamine, 2 hr; hit = compound effect <20

Going from `CCC(NC(C)C)C(O)c1ccc(O)c(O)c1.CS(=O)(=O)O` (stereo not drawn) [Compound 644, Isotharine mesylate] to `Cc1ccc(OCC(O)C(C)NC(C)C)c2c1CCC2.Cl` (stereo not drawn) [Compound 672, ICI 118,551 hydrochloride], the “Compound effect (percent receptor signaling in presence of test compound, relative lux units relative to the SCH23390 control)” value falls from 115% to 92%.

Compared with `CC(C)NNC(=O)c1ccncc1.O=P(O)(O)O` [Compound 657, Iproniazid phosphate], `CCN1CCC[C@H]1CNC(=O)c1c(OC)ccc(I)c1O` [Compound 675, S(-)-IBZM] is lower in “Compound effect (percent receptor signaling in presence of test compound, relative lux units relative to the SCH23390 control)” value: 97% for the first, 85% for the second.

Going from `NC(N)=NCc1cccc(I)c1.NC(N)=NCc1cccc(I)c1.O=S(=O)(O)O` [Compound 665, m-Iodobenzylguanidine hemisulfate] to `NC(CO)(CO)CO.O=C(c1ccccc1)c1ccc2n1CCC2C(=O)O` (stereo not drawn) [Compound 684, Ketorolac tris salt], the “Compound effect (percent receptor signaling in presence of test compound, relative lux units relative to the SCH23390 control)” value rises from 96% to 98%.

With `Cl.Clc1cc(I)cc(Cl)c1NC1=NCCN1` [Compound 667, p-Iodoclonidine hydrochloride] the “Compound effect (percent receptor signaling in presence of test compound, relative lux units relative to the SCH23390 control)” value was 83%.

Same assay, conditions: read-out: % of the SCH23390 effect (percent inhibition of receptor response relative to the SCH23390 control)

First: CN1CCC(=C2c3ccccc3CC(=O)c3sccc32)CC1 [Compound 687, Ketotifen fumarate]
Second: CC1(C)CCC2=C(O1)c1ccccc1C(=O)C2=O [Compound 696, beta-Lapachone]
The inhibition at 10 µM of the first is higher: 96% for the first, 86% for the second.

Molecule `O=C1Cc2c([nH]c3ccc(Br)cc23)-c2ccccc2N1` [Compound 689, Kenpaullone] has an inhibition at 10 µM of 83%.
